Data on five molecules can be found in patent US9604973B2, “Anti-cancer polyketide compounds” (priority 2012, dated 2017).

For assay [1], the system named is HCT-116 cell line. Kind of assay: MTT cell proliferation assay. In kind it is cell-based. The following applies: HCT-116 cell line; for IC50: MTT. The text has this:
Structure Activity Relationships (SAR) studies for 1SS, […], 1RS, and […]. It has been reported that ablation of C3, C6 and C7 substituents is detrimental to activity. […] (See FIG. 4). Additional activity was also observed when C17 was left in its natural R configuration.

For assay [2], the system named is CLL cells. Kind of assay: Flow cytometry, % specific induced apoptosis (DiOC6/PI) in primary CLL cells. Format: cell-based, human. The following applies: Homo sapiens, CLL cell; CLL cells from patient with del (17p) and Tp53 mutation, 48 hours. The procedure: FIG. 20A-20C: FD-895 and PLAD induce apoptosis in CLL cells but not in normal lymphocytes with a TP53 independent activity: Primary leukemia B cells from CLL (FIG. 20A) patient with del (17p) and Tp53 mutation, (FIG. 20B) patient with wild type p53 and sensitive to F-Ara-A and (FIG. 20C) normal lymphocytes from healthy donor were incubated with FD-895, PLAD and F-Ara-A (0, 10, 100, 1000 10,000 nM) for 48 hours.
FIG. 21: FD-895 and PLAD induce apoptosis in CLL cells not ONLY independently of Tp53 but also independently of SF3B1 mutational status: Primary leukemia B cells from CLL patient with SF3B1 wild, SF3B1 mutation, 17p DEL and normal B and T lymphocytes from healthy donor were incubated with FD-895 and PLAD with 100 nM for 48 hours. After incubation, the samples were harvested and % SIA was measured by flow cytometry as described above. […] Each dots represents number of CLL patient sample and normal B or T cells.
Peripheral blood mononuclear cells (PBMC) from patients with CLL were obtained from the CLL Research Consortium (CRC) tissue bank. The blood samples were collected after obtaining a written informed consent from the patients under a protocol approved by the institutional review board of The University of California, San Diego. All patients met criteria for CLL.^1 CLL B cells and PBMCs were separated from heparinized venous blood of the B-CLL patients by density gradient centrifugation using Ficoll-Hypaque (GE healthcare) as described earlier.^2 The samples that were used had more than 95% positive cells for CD19 and CD5+, as assessed by flow cytometry. CLL B cells were maintained in RPMI 1640 medium supplemented with 10% FBS, 2 mM L-glutamine, and 100 U/mL of penicillin and 100 μg/mL of streptomycin at 37° C. in an atmosphere of 5% CO2.
Apoptotic and viable cells were discriminated via flow cytometry of cells stained with 3,3′ dihexyloxacarbocyanine iodide (DiOC6) (Molecular Probes, Eugene, Oreg., USA) and propidium iodine (Sigma, St Louis, Mo., USA), as described.^3 Using this method viable cells exclude PI and stain brightly positive for DiOC6.

In assay [3] the test system is DNAJB1. Kind of assay: RT-PCR of spliced and unspliced mRNA (intron retention) in CLL cells. In kind it is cell-based, human. Particulars: 4 hours, FD-895, PLAD 10, 100 nM, bendamustine 33, 100 μM, F-Ara-A 3, 10, 33 μM. On the procedure:
(§1) FIG. 23: FD-895 and PLAD induced inhibition of splicing in CLL: RT-PCR for analysis of spliced and unspliced mRNAs. CLL cells treated with FD-895, PLAD (10, 100 nM), chemotherapeutic agent like bendamustine (33, 100 μM) and F-Ara-A (3, 10, 33 μM) for 4 hours. RT-PCR for DNAJB1 was performed with primers spanning two exons; products were analyzed on ethidium bromide-stained agarose gels (2%) to visualize the correct size of the unspliced mRNAs. […] The exon structure of DNAJB1 gene is indicated. G, human genomic DNA was used as a control; U, unspliced mRNA; S, spliced mRNA.
(§2) CLL cells were treated with 10 and 100 nM of FD-895 and PLAD, 33 and 100 μM of bendamustine and 3, 10, and 33 μM of F-Ara-A for 4 h. Normal B and CLL cells were treated with 100 nM of FD-895 and PLAD and 10 μM of F-Ara-A for 15 minutes, 30 minutes, 1, 2 and 4 h. Total RNA was extracted using mirVana™ miRNA isolation kit (Ambion Life Technology, USA). After DNase treatment, 200 ng total RNA was reverse-transcribed using a SuperScript™ III first-strand synthesis system (Invitrogen). PCR was performed on 10 ng of the obtained cDNA (or human genomic DNA as a control) in 25 μl of reaction mixture containing Plantinum® PCR SuperMix High-fidelity (Invitrogen Life Technology, USA), and 0.1 μM of each primer of the appropriate pair.
(§3) PCR conditions were 94° C. for 3 min; 35 cycles of 94° C. for 30 s, 60° C. for 30 s, and 72° C. for 1 min; followed by 72° C. for 5 min. PCR products were separated on a 2% agarose gel and stained with ethidium bromide.

The subject of assay [4] is GAPDH. Kind of assay: RT-PCR of spliced and unspliced mRNA (intron retention) in CLL cells, housekeeping gene. In kind it is cell-based, human. Particulars: 4 hours, same concentrations. The procedure:
as §1, §2, §3

As usually defined, the IC50 is the concentration that inhibits the measured activity by half. A high value points to weaker potency. Take `CC[C@H](OC)[C@@H](C)[C@H]1O[C@@H]1[C@@H](O)[C@@H](C)/C=C/C=C(\C)[C@H]1OC(=O)C[C@H](O)CC[C@@](C)(O)[C@@H](OC(C)=O)/C=C/[C@@H]1C` [Isomer 1SS]: in assay [1] (Homo sapiens), the IC50 stood at 23 ± 1.2 nM.
As for `CC[C@H](OC)[C@@H](C)[C@H]1O[C@@H]1[C@@H](O)[C@H](C)/C=C/C=C(\C)[C@H]1OC(=O)C[C@H](O)CC[C@@](C)(O)[C@@H](OC(C)=O)/C=C/[C@@H]1C` [Isomer 1SR], the midpoint of inhibition in assay [1], the IC50, lay at 3.7 ± 0.2 nM.
In assay [2], `Nc1nc(F)nc2c1ncn2[C@@H]1O[C@H](COP(=O)(O)O)[C@@H](O)[C@@H]1O` [F-Ara-A, Fludarabine phosphate] gave an IC50 of more than 10000 nM.
Regarding `Cn1c(CCCC(=O)O)nc2cc(N(CCCl)CCCl)ccc21` [Bendamustine], in assay [3], the “intron retention/splicing inhibition of DNAJB1” value is listed as “did not show intron retention/splicing inhibition”. In addition, the “splicing inhibition of housekeeping gene GAPDH” value in assay [4] is given as “Neither FD-895, PLAD nor chemotherapy agents showed splicing inhibition”.
In the case of `CC[C@H](OC)[C@@H](C)[C@H]1O[C@@H]1[C@H](O)[C@@H](C)/C=C/C=C(\C)[C@H]1OC(=O)C[C@H](O)CC[C@@](C)(O)[C@@H](OC(C)=O)/C=C/[C@@H]1C` [Isomer 1RS], in assay [1], the “times more active than FD-895” value is approximately 25 times and the midpoint of inhibition, the IC50, lay at 0.8 ± 0.05 nM.
